Results published in patent US6514946B1, “Macrolide antibiotics and treatment and prophylaxis of pasteurellosis using the same” (Zaidan Hojin Biseibutsu Kagaku Kenkyu Kai, priority 1999, dated 2003).
≈ marks a conversion by molar mass, not a printed value.

Legend:
[1] = tested on: Past. multocida BSPO302 No. 6; assay: Minimum inhibition concentration (MIC), agar double dilution method; type: cell-based, Pasteurella multocida; settings: Pasteurella multocida, BSPO302NO.6; Past. multocida BSPO302 No. 6, strain from a pig; BHI agar; read-out: MIC
Method in brief: (§1)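 Compounds were serially double-diluted into Mueller Hinton agar, following the Japan Society of Chemotherapy standard, and the test strains were then grown on it. Pasteurella alone was tested on brain heart infusion agar.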

[2] = tested on: Past. multocida BOPO305 M-17; assay: as above; type: cell-based, Pasteurella multocida; settings: Pasteurella multocida, BOPO305M17; Past. multocida BOPO305 M-17, strain from a sheep; BHI agar; read-out: MIC
Method in brief: as §1

E. coli K-12 R-5 = assay: as above; type: cell-based, Escherichia coli; settings: Escherichia coli, K12R5, Mueller hinton agar, read-out: MIC
Method in brief: as §1

H. somnus = assay: Bacteria separation test from nasal cavity swab; type: in vivo, cattle
[3] = tested on: S. aureus Smith (virulent strain); assay: microbe, parasite or virus in culture; type: cell-based, Staphylococcus aureus; settings: Staphylococcus aureus
Method in brief: (§2)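 Agar two-fold dilution per Japan Society of Chemotherapy standard method; Mueller Hinton agar used for these organisms (BHI agar reserved for Pasteurella). MIC read as lowest concentration inhibiting growth.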

[4] = tested on: P. haemolytica 63-39 intraperitoneally infected mice; assay: Antiinfective test on infected mice
M. bovis = type: in vivo, cattle; settings: nasal cavity swab
P. haemolytica 63-39 = assay: Sensitivity (MIC), agar plate dilution method; settings: Mannheimia haemolytica, 6339
[5] = tested on: bovine bacterial pneumonia (Mycoplasma, Ureaplasma and Pasteurella); assay: Clinical test against bovine bacterial pneumonia; type: in vivo, cattle; parameters: Average clinical score: scale not given here
Description: Test 5: Clinical Test Against Bovine Bacterial Pneumonia
In this test, each drug was subcutaneously administered to cattle suffering from bacterial pneumonia (infectious diseases with Mycoplasma, Ureaplasma and Pasteurella), respectively, and the clinical effect of P-MT was compared with those of tilmicosin and C-9.
Tests are made on 17 case of one to two-month-old Holstein cattle (weight 56 to 101 kg) suffering from bacterial pneumonia caused by single or mixed infection of Pasteurella, Mycoplasma, Ureaplasma and Haemophilus (6 animals for each of P-MT and C-9 and 5 animals for tilmicosin). The drug was subcutaneously administered to the animals once a day in an amount of 10 mg/kg.
Three calves showing a similar degree of symptoms at the start of the test were arranged in one group. Each subject of the same group was respectively tested with one of the above three compounds. Ailing calves were successively grouped when being available.
Clinical findings, based on the daily observation from the time of the administration through the 5th day of the trial, were scored on each item according to the criteria in the table below. The clinical efficacy of the compounds was judged on the 5th day.
As to judgment based on the clinical symptoms, cases which could be judged among each group were classified into remarkably effective (85 to 100), effective (70 to under 85), a little effective (50 to under 70) and infective (under 50) according to the following improvement rate by clinical scores, and after summing up, the following effective rate was calculated, the difference in the effective rate among the groups was determined using a statistical method, and thus effectivity was judged. [formula]

M. bovirhinis = assay: Bacteria separation test from nasal cavity swab; type: in vivo, cattle
[6] = In vivo kinetics (absorption and excretion test) in mice; settings: male, Slc ddY, mouse, sc, 5 mg/kg
Ureaplasma = assay: Bacteria separation test from nasal cavity swab; type: in vivo, cattle
P. multocida = assay: Bacteria separation test from nasal cavity swab; type: in vivo, cattle
Escherichia coli NIHJ = assay: Minimum inhibition concentration (MIC), agar double dilution method; type: cell-based; settings: Mueller hinton agar, read-out: MIC
Method in brief: as §1

[7] = tested on: Pasteurella haemolytica BBPO101 N791; assay: as above; type: cell-based; settings: Mannheimia haemolytica, BBPO101N791
Method in brief: as §2

[8] = tested on: Salmonella enteritidis 1891; assay: as above; type: cell-based; settings: Salmonella enterica, Mueller hinton agar, read-out: MIC
Method in brief: as §1

[9] = tested on: Klebsiella pneumoniae PCI602; assay: as above; type: cell-based; settings: Mueller hinton agar, read-out: MIC
Method in brief: as §1

[10] = tested on: Staphylococcus aureus 193; assay: as above; type: cell-based; settings: Mueller hinton agar, read-out: MIC
Method in brief: as §1

Serratia marcescens = assay: as above; type: cell-based; settings: Mueller hinton agar, read-out: MIC
Method in brief: as §1

[11] = tested on: Micrococcus luteus PCI1001; assay: as above; type: cell-based; settings: Mueller hinton agar, read-out: MIC
Method in brief: as §1

[12] = tested on: Enterobacter aerogenes ATCC13048; assay: as above; type: cell-based; settings: Klebsiella aerogenes, Mueller hinton agar, read-out: MIC
Method in brief: as §1

Proteus vulgaris OX19 = assay: as above; type: cell-based; settings: Mueller hinton agar, read-out: MIC
Method in brief: as §1

[13] = tested on: Shigella dysenteriae JS11910; assay: as above; type: cell-based; settings: Shigella dysenteriae, JS11910
Method in brief: as §2

[14] = tested on: Bacillus subtilis NRRL B-558; assay: as above; type: cell-based; settings: Bacillus subtilis, NRRLB558
Method in brief: as §2

[15] = before administration (baseline)

SMILES: CC[C@H]1OC(=O)C[C@@H](O)[C@H](C)[C@@H](O[C@@H]2O[C@H](C)C(O)C(N(C)C)C2O)[C@@H](CCN2CC(C)CC(C)C2)C[C@@H](C)C(=O)/C=C/C(C)=C/[C@@H]1CO[C@@H]1OC(C)C(O)[C@@H](OC)C1OC (stereo partly drawn) [Tilmicosin, tilmicosin]
- MIC [1]: 6.25 µg/mL (≈ 7.19 µM)
- MIC [2]: 6.25 µg/mL (≈ 7.19 µM)
- MIC (E. coli K-12 R-5): > 100 µg/mL
- Separation rate (%) at completion (number of animal) (H. somnus; at completion): 0 (0/5) % (number of animal)
- Separation rate (%) before administration (number of animal) (H. somnus; [15]): 0 (0/5) % (number of animal)
- MIC [3]: 1.56 µg/mL (≈ 1.79 µM)
- ED50 ([4]; Mannheimia haemolytica, in Mus musculus, sc, 168 h, read-out: ED50 (95% confidence limit)): 26.2 mg/kg
- Surviving number after 7 days/test number ([4]; dose 1 mg/kg subcutaneous one hour after infection): 0/10
- Surviving number after 7 days/test number ([4]; dose 5 mg/kg subcutaneous one hour after infection): 0/10
- Surviving number after 7 days/test number ([4]; dose 10 mg/kg subcutaneous one hour after infection): 3/10
- Surviving number after 7 days/test number ([4]; dose 20 mg/kg subcutaneous one hour after infection): 4/10
- Surviving number after 7 days/test number ([4]; dose 30 mg/kg subcutaneous one hour after infection): 5/10
- ED90 ([4]; probit method from surviving numbers after 7 days, subcutaneous): 102.1 mg/kg
- Separation rate (%) at completion (number of animal) (M. bovis; at completion): 40 (2/5) % (number of animal)
- Separation rate (%) before administration (number of animal) (M. bovis; [15]): 40 (2/5) % (number of animal)
- MIC (P. haemolytica 63-39): 3.13 µg/mL (≈ 3.6 µM)
- Average clinical score ([5]; 1 day after completion of administration, cattle, 10 mg/kg subcutaneous): 3.5
- Average clinical score ([5]; 2 days after completion of administration): 2.8
- Average clinical score ([5]; 3 days after completion of administration): 2.2
- Average clinical score ([5]; 4 days after completion of administration): 2.7
- Effective rate (%) in clinical effect ([5]; (remarkably effective + effective case number)/test case number × 100): 40%
- Average symptomatic improvement rate (%) ([5]; (score before − score after administration)/score before × 100): 65.6%
- Average clinical score ([5]; at administration (baseline), cattle, 10 mg/kg subcutaneous): 6.5
- A little effective (%) (case number) ([5]; improvement rate 50 to under 70): 20 (1) % (case number)
- Effective (%) (case number) ([5]; improvement rate 70 to under 85): 0 (0) % (case number)
- Remarkably effective (%) (case number) ([5]; improvement rate 85 to 100): 40 (2) % (case number)
- Ineffective (%) (case number) ([5]; improvement rate under 50): 40 (2) % (case number)
- Separation rate (%) at completion (number of animal) (M. bovirhinis; at completion): 60 (3/5) % (number of animal)
- Separation rate (%) before administration (number of animal) (M. bovirhinis; [15]): 60 (3/5) % (number of animal)
- concentration at 0.5 h ([6]; lung): 310 ng/g
- concentration at 1 h ([6]; lung): 350 ng/g
- concentration at 2 h ([6]; lung): 310 ng/g
- concentration at 4 h ([6]; lung): 230 ng/g
- concentration at 8 h ([6]; lung): 195 ng/g
- concentration at 24 h ([6]; lung): 60 ng/g
- concentration at 0.5 h ([6]; serum): 230 ng/mL
- concentration at 1 h ([6]; serum): 60 ng/mL
- concentration at 2 h ([6]; serum): 50 ng/mL
- concentration at 4 h ([6]; serum): 40 ng/mL
- Separation rate (%) at completion (number of animal) (Ureaplasma; at completion): 60 (3/5) % (number of animal)
- Separation rate (%) before administration (number of animal) (Ureaplasma; [15]): 100 (5/5) % (number of animal)
- Separation rate (%) at completion (number of animal) (P. multocida; at completion): 80 (4/5) % (number of animal)
- Separation rate (%) before administration (number of animal) (P. multocida; [15]): 100 (5/5) % (number of animal)
- MIC (Escherichia coli NIHJ): 25 µg/mL (≈ 28.8 µM)
- MIC [7]: 1.56 µg/mL (≈ 1.79 µM)
- MIC [8]: 6.25 µg/mL (≈ 7.19 µM)
- MIC [9]: 25 µg/mL (≈ 28.8 µM)
- MIC [10]: 0.39 µg/mL (≈ 0.449 µM)
- MIC (Serratia marcescens): > 100 µg/mL
- MIC [11]: 0.2 µg/mL (≈ 0.23 µM)
- MIC [12]: 100 µg/mL (≈ 115 µM)
- MIC (Proteus vulgaris OX19): 100 µg/mL (≈ 115 µM)
- MIC [13]: 100 µg/mL (≈ 115 µM)
- MIC [14]: 1.56 µg/mL (≈ 1.79 µM)
